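Where inhibition never reached the appropriate level, the endpoint shown equals the highest concentration tested. Otherwise, values were interpolated linearly from a five-concentration, 48-hour dose response in 96-well plates. TGI: total growth inhibition.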 Where a SMILES comes first, the peptide text is derived from it. The star is where a group is joined. Cbz = O=C(OCc1ccccc1)*; Boc = CC(C)(C)OC(=O)*; OSu = O=C1CCC(=O)N1O*; Bn = c1ccc(C*)cc1
Assays:
Assay in all cases: NCI anticancer screen, dose series, 48 h
MDA-MB-435 = tested on: MDA-MB-435
HOP-62 NSCLC = tested on: HOP-62 NSCLC
MALME-3M melanoma = tested on: MALME-3M melanoma
SW-620 colon = tested on: SW-620 colon
HCT-15 colon = tested on: HCT-15 colon
NCI-H460 lung = tested on: NCI-H460 lung
HCT-116 colon = tested on: HCT-116 colon
NCI-H23 lung = tested on: NCI-H23 lung
SNB-19 CNS = tested on: SNB-19 CNS
MOLT-4 leukemia = tested on: MOLT-4 leukemia
NCI-H226 lung = tested on: NCI-H226 lung
OVCAR-3 ovarian = tested on: OVCAR-3 ovarian
RXF 393 renal = tested on: RXF 393 renal

SMILES	TGI (MDA-MB-435)	TGI (HOP-62 NSCLC)	TGI (MALME-3M melanoma)	TGI (SW-620 colon)	TGI (HCT-15 colon)	TGI (NCI-H460 lung)	TGI (HCT-116 colon)	TGI (NCI-H23 lung)	TGI (SNB-19 CNS)	TGI (MOLT-4 leukemia)	TGI (NCI-H226 lung)	TGI (OVCAR-3 ovarian)	TGI (RXF 393 renal)
Nc1cc(N2CCCC2)nc(=O)n1-c1ccccc1	> 100 µM	> 100 µM	> 100 µM	> 100 µM	> 100 µM	> 100 µM	> 100 µM	> 100 µM	> 100 µM	> 100 µM	> 100 µM		
O=c1ccn(C2OC(CO)C(O)C2[Se]c2ccccc2)c(=O)[nH]1 (stereo not given)	> 100 µM	> 100 µM	> 100 µM	> 100 µM	> 100 µM	> 100 µM	> 100 µM	> 100 µM	> 100 µM	> 100 µM	> 100 µM	> 100 µM	
CC1=C/C(=N\O)C(C(O)(C(F)(F)F)C(F)(F)F)C(C)(C)C1 (stereo not given)	> 10 µM	> 10 µM	> 10 µM	> 10 µM	> 10 µM	> 10 µM	> 10 µM	> 10 µM	> 10 µM	> 10 µM	> 10 µM	> 10 µM	
N#Cc1c(N)[nH]c(=S)c(C#N)c1-c1ccccc1		> 100 µM	> 100 µM	> 100 µM	> 100 µM	> 100 µM	> 100 µM	> 100 µM	> 100 µM	> 100 µM	> 100 µM	> 100 µM	> 100 µM
COc1ccc(/C(O)=C/c2nc3cccnc3nc2/C=C(\O)c2ccc(OC)cc2)cc1	76.4 µM	20 µM	52.2 µM		> 100 µM	32.6 µM	52.3 µM	30.7 µM	57.5 µM	> 100 µM	22.5 µM	38.8 µM	
CC(=O)Nc1ccc2[nH]c(-c3cccc(Cl)c3)cc(=O)c2c1	6.93 µM	> 100 µM	> 100 µM	> 100 µM	> 100 µM			> 100 µM	> 100 µM	> 100 µM			
CC(=O)NC1=C(NCCN(C)C)C(=O)c2ccccc2C1=O		> 50 µM	14.3 µM	> 50 µM	20.5 µM	> 50 µM	18.6 µM	27.8 µM	> 50 µM	> 50 µM	> 50 µM	> 50 µM	> 50 µM
CO[C@@H]1C=C[C@@]23c4cc5c(cc4C(=O)O[C@H]2CN(C)[C@H]3C1)OCO5				> 100 µM		> 100 µM	> 100 µM	> 100 µM	> 100 µM	> 100 µM		> 100 µM	> 100 µM
COc1ccc(OCc2ccc3nc(-c4ccccc4)c(Cl)nc3c2)cc1	> 100 µM	28.6 µM	37.3 µM	> 100 µM	> 100 µM	> 100 µM	> 100 µM	67.9 µM	68.2 µM	> 100 µM		> 100 µM	
CCC[C@H](NS(=O)c1ccc(C)cc1)C(C(=O)OCC)=C(c1ccccc1)c1ccccc1 (stereo not given in full)	35 µM	36.4 µM	36.1 µM	> 100 µM	> 100 µM	36.5 µM	27.4 µM	96 µM	> 100 µM	> 100 µM	51.6 µM		29.6 µM
Oc1ccc(N=C2CCC(=C(c3ccccc3)c3ccc(Nc4ccc(O)cc4)cc3)CC2)cc1	> 100 µM			> 100 µM	> 100 µM	> 100 µM	> 100 µM	> 100 µM	> 100 µM	> 100 µM	> 100 µM		> 100 µM
CC1(C)C(O)C[C@@H](O)[C@@]2(C)C1CC[C@]1(C)C2C[C@@H](O)[C@@H]2C([C@@]3(C)CC[C@@H](C(C)(C)O)O3)CCC21C (stereo not given in full)		30.3 µM	31.8 µM	30.5 µM	25.1 µM	35.9 µM	30.9 µM	35.3 µM	30.4 µM	67.7 µM	34.7 µM	29.4 µM	27.1 µM
C=C(C)[C@@]1(OC(=O)c2cc([N+](=O)[O-])cc([N+](=O)[O-])c2)C[C@@H]2CCCC[C@@H]21		> 100 µM	> 100 µM	> 100 µM	> 100 µM	> 100 µM	> 100 µM	> 100 µM	> 100 µM	> 100 µM	> 100 µM		
CC(=O)OC1CCCn2c1nc1c2C(=O)C(C)=C(N2CC2)C1=O (stereo not given)		0.625 µM	0.47 µM	0.927 µM	0.726 µM	0.296 µM	1.96 µM	0.373 µM	1.38 µM	> 100 µM	0.944 µM	1.39 µM	0.768 µM
CC(=O)Nc1cc2c3c(c1)CCCN3CCC2	> 100 µM		> 100 µM	> 100 µM	> 100 µM	> 100 µM	> 100 µM	> 100 µM	> 100 µM	> 100 µM	> 100 µM	> 100 µM	> 100 µM
CCOC(=O)[C@@]12C3C=CC(CC3)[C@]1(C(=O)c1ccccc1)C(=O)C(=O)N2c1ccccc1 (stereo not given in full)	> 100 µM	> 100 µM	> 100 µM	> 100 µM	> 100 µM	> 100 µM	> 100 µM	> 100 µM	> 100 µM	> 100 µM		> 100 µM	> 100 µM
CN(N)c1cc(=O)[nH]c(=O)[nH]1		> 100 µM	> 100 µM	> 100 µM	> 100 µM	> 100 µM	> 100 µM	> 100 µM	> 100 µM	> 100 µM	> 100 µM	> 100 µM	
c1ccc(-n2nc3ccc4nonc4c3n2)cc1	> 100 µM	> 100 µM	> 100 µM	> 100 µM	> 100 µM	> 100 µM	> 100 µM	> 100 µM	> 100 µM	> 100 µM		> 100 µM	> 100 µM
O=C(O)c1ccc(NC(NC(=O)C(C(F)(F)F)C(F)(F)F)(C(F)(F)F)C(F)(F)F)cc1	> 100 µM			> 100 µM	> 100 µM		> 100 µM	> 100 µM	> 100 µM	> 100 µM			> 100 µM

SMILES	TGI (MDA-MB-435)	TGI (HOP-62 NSCLC)	TGI (MALME-3M melanoma)	TGI (SW-620 colon)	TGI (HCT-15 colon)	TGI (NCI-H460 lung)	TGI (HCT-116 colon)	TGI (NCI-H23 lung)	TGI (SNB-19 CNS)	TGI (MOLT-4 leukemia)	TGI (NCI-H226 lung)	TGI (OVCAR-3 ovarian)	TGI (RXF 393 renal)
CN(C)S(=O)(=O)/N=C/c1cccc(/C=N/S(=O)(=O)N(C)C)c1	> 100 µM	> 100 µM		> 100 µM	> 100 µM	> 100 µM	> 100 µM	> 100 µM	> 100 µM	> 100 µM	> 100 µM	> 100 µM	
O=C(N=Nc1cccc(Cl)c1)NNc1cccc(Cl)c1	26.5 µM	22.2 µM	39.6 µM	35.5 µM	75.7 µM	34.2 µM	21.2 µM	> 100 µM	> 100 µM	42.7 µM	> 100 µM	29.9 µM	
O=C(O)c1cc(/C=C/c2cc(O)ccc2O)ccc1O	> 10 µM		> 10 µM	> 10 µM	> 10 µM	> 10 µM		> 10 µM	> 10 µM	> 10 µM	> 10 µM	> 10 µM	
COc1cc(C2C(C#N)=C(N)OC3=C2CCS(=O)(=O)c2ccc(C)cc23)cc(OC)c1OC (stereo not given)	> 100 µM	> 100 µM	> 100 µM	> 100 µM	> 100 µM	> 100 µM	> 100 µM	> 100 µM	> 100 µM		> 100 µM	> 100 µM	
CC(C)(C)OC(=O)NCCc1cccc2c1oc1c(CCC(=O)O)cccc12			> 100 µM	> 100 µM	> 100 µM	> 100 µM	> 100 µM	> 100 µM	> 100 µM	> 100 µM	> 100 µM	> 100 µM	> 100 µM
CCOC(=O)c1cnc2n(c1=N)[C@H]1CCCC[C@@H]1N2	> 100 µM		> 100 µM	> 100 µM	> 100 µM	> 100 µM	> 100 µM	> 100 µM	> 100 µM	> 100 µM	> 100 µM	> 100 µM	> 100 µM
C=C(C)[C@H]1C=C[C@@H](OC(=O)c2cccnc2)[C@@]23CO[C@@](C)([C@H](OC(=O)c4cccnc4)[C@@]4(OC(C)=O)C[C@H](C)[C@H](OCCC)[C@@H]4[C@H]2OC(C)=O)[C@H]13	> 15 µM	> 15 µM		> 15 µM	> 15 µM	> 15 µM	> 15 µM	> 15 µM	> 15 µM	> 15 µM	> 15 µM	> 15 µM	> 15 µM
CC(NC(=O)c1ccccc1)NC(=O)C(C)C(=O)Nc1ccccc1 (stereo not given)	> 100 µM		> 100 µM	> 100 µM	> 100 µM	> 100 µM	> 100 µM	> 100 µM	71.7 µM	> 100 µM	> 100 µM		> 100 µM
NC(=S)N/N=C1\NC(=O)/C(=C/c2ccc3c(c2)OCO3)S1	78.1 µM	51.5 µM		88.8 µM	82.6 µM	> 100 µM	85 µM	54.4 µM	53.6 µM	67.3 µM	78.7 µM	45.7 µM	52.3 µM
C=C[C@@H]1C[C@]2(C(=O)OC)Cc3nc4ccccc4nc3CC(C(=O)OC)=C2O1	> 100 µM	> 100 µM	> 100 µM	> 100 µM	> 100 µM	> 100 µM	> 100 µM	> 100 µM	> 100 µM	> 100 µM		> 100 µM	> 100 µM
CO/N=C(\C(=O)N(C)n1cnnc1)c1csc(NC(c2ccccc2)(c2ccccc2)c2ccccc2)n1		> 10 µM	> 10 µM	> 10 µM	> 10 µM	> 10 µM	> 10 µM	> 10 µM	> 10 µM	> 10 µM	> 10 µM	> 10 µM	> 10 µM
O=c1oc2ccccc2c(O)c1/C=N/C(=S)NCCc1ccccc1	> 75.3 µM	> 100 µM		> 100 µM	> 100 µM	> 70.3 µM	> 100 µM	> 88 µM	> 100 µM	> 100 µM	> 100 µM	> 100 µM	> 100 µM
CC1Oc2c(c(=O)oc3ccccc23)[C@@]1(C)CC1C[C@H](C)C(=O)O1 (stereo not given in full)	47.8 µM	> 100 µM	53.4 µM	> 100 µM	> 100 µM		28.4 µM	40.9 µM	> 100 µM	37.2 µM	> 100 µM	45.3 µM	
CC(C)(C)OC(=O)NC(Cc1ccc(OCc2ccccc2)cc1)C(=O)NC(CCCCNC(=O)OCc1ccccc1)C(=O)ON1C(=O)CCC1=O (stereo not given) (Boc-Tyr(Bn)-Lys(Cbz)-OSu; configuration not given here)		42.8 µM	46.9 µM	41.1 µM	32 µM	50.8 µM	41 µM	34.4 µM	35.3 µM	48.2 µM	99.6 µM		55.3 µM
CC(=O)CSc1c(-c2ccccc2)c(=O)n(-c2ccccc2)c(=S)n1-c1ccccc1	> 100 µM	> 100 µM	> 100 µM	> 100 µM	> 100 µM	> 100 µM	> 100 µM	> 100 µM	> 100 µM	> 100 µM	> 100 µM	> 100 µM	
O=C(c1ccccc1)c1ccc(-n2c3ccccc3c3ccc4c(c32)C(=O)C=CC4=O)cc1	20.5 µM	33.6 µM		30.1 µM	31.3 µM	36.2 µM	16.3 µM	29.5 µM	36.4 µM	> 35.4 µM	53.8 µM	20.8 µM	19.2 µM
Cc1cc(S(=O)(=O)Nc2cc(N)[nH]n2)c(SCc2nc(N)nc(N(C)C)n2)cc1Cl		> 10 µM	> 10 µM	> 10 µM	> 10 µM	> 10 µM	> 10 µM	> 10 µM	> 10 µM	> 10 µM	> 10 µM	> 10 µM	> 10 µM
Cc1oc2c(Cl)cc(O)c(Cl)c2c2cccc1-2	70 µM	66.5 µM	53.1 µM	> 100 µM	75.4 µM	> 100 µM	36.4 µM	44.1 µM	> 100 µM		61.6 µM	56.6 µM	
